“Also recorded” adds a separate entry of the source.
How the values were obtained:
[1] = system: collagen-induced arthritis (CIA); type: in vivo, DBA1/J mice
BAFFR = assay: BAFF-mediated stimulation of B cells; type: cell-based, mice; details: 33 nM pre-treatment, BAFF 0.5 or 5 μg/ml
Method: (§1) Activity was monitored by ^3H-thymidine incorporation as a read-out for proliferation. […] Cell type(s) in the splenocyte population responsive to therapeutic concentrations of cardiac glycoside were determined by identifying the population of cells that responded to a dose-dependent decrease in activity in the presence of stimulant, defined as ligand(s) binding to cognate receptor(s). Activity was analyzed by: ^3H-thymidine or BrdU incorporation to monitor proliferation or by ELISA to monitor cytokine production. Splenic T lymphocytes were isolated by negative selection (MACS, Miltinyi Biotec) and are stimulated with PMA, ConA or through the TCR with anti-CD3/anti-CD28 Dynabeads (Invitrogen) and collagen II (all non-TNFR receptors/pathways). […] Peritoneal and bone marrow-derived macrophages were isolated from CIA mice in the presence of M-CSF growth factor and were stimulated with TNF and CD40 ligand (CD40L). […] Splenic B lymphocytes were isolated by negative selection (MACS, Miltinyi Biotec) and were stimulated with BAFF (BLyS), CD40L or through the BCR with anti-IgM u-chain specific antibodies.

[2] = CHCI3/16% aqueous methanol (MeOH); cited from earlier work
regulatory T cells = assay: FACS of regulatory T cells in splenocytes of treated CIA mice; type: in vivo, DBA1/J mice; details: 0.3 mg/kg treated CIA mice, 4 mice per group
Method: (§2) FIG. 25. […] (A) Representative data from mixed lymphocyte studies. […] B cells were washed, replated in complete RPMI supplemented with BAFF (1 ng/mL), anti-CD3 antibody (4 μg/mL) and were added to 5×10^5 naïve CD4^+ T cells purified by MACS. Cells were incubated for 72 hr prior to harvest. IL-6, IL-10, TGFβ and IL-17 cytokine levels were measured by ELISA (R&D Systems, Peprotech, and eBiosciences). Data represent the average absorbance (A450) of triplicates and error bars represent the SEM. […] Cells were fixed in 4% paraformaldehyde for 15 minutes, washed twice with PBS and blocked with FACS buffer. Cells were stained for regulatory T cells using anti-TCRβ, anti-CD4, anti-CD25 and anti-FoxP3 antibodies (Cell Signaling Technologies, R&D Systems, AbCam). FACS was performed on the FACS Aria (Becton-Dickenson). Data represent the average population in 500,000 cells from 4 mice per treatment group. Error bars represent the SEM.
(§3) It is known that B cells can regulate T cell differentiation and in many states of autoimmune disease, an imbalance of Th1, Th2, and Th17 T cell populations exist. […] We performed studies to determine the regulatory effector function of B cells pre-treated with cardiac glycoside on T cell differentiation. […]

[3] = oral; cited from earlier work
[4] = system: B cell receptor (membrane Ig); assay: B cell receptor mediated B cell proliferation; type: cell-based, mice; details: pre-treatment of B cells; anti-IgM stimulation
Method: as §1

phospho-STAT3 (Y705) = assay: STAT3 phosphorylation in cells from CIA mice (flow cytometry, Western blot); type: cell-based; details: splenic B cells from CIA mice, 33 nM, 30 minutes / 0-60 minutes
Method: FIG. 15. […] Flow cytometry was performed using the FACSAria II (Bectin Dickenson). […] Lysates were quantified for total protein using the Nanodrop, and verification was performed by BCA (Pierce). Lysates were loaded onto SDS-PAGE and transferred to PVDF (Millipore). Membranes were blotted for phospho-STAT3 (Y705) and beta-actin.
Cardiac glycosides were administered at endogenous levels (sub- and nano Molar) or therapeutic levels (nano Molar) to modulate transcription factor activity and gene expression. Alteration of STAT1 activity has been observed in Alzheimer's disease and susceptibility to lethal intracellular pathogenic diseases (Kitamura et al, 1997; Chapgier et al, 2009). Aberrant STAT2 levels have been linked to inflammatory disease such as Crohn's disease (CD), ulcerative colitis (UC) and inflammatory bowel disease (IBD), and cancers such as colorectal and skin cancers (Gamero et al, 2010). STAT3 signaling is a critical component of Th17-dependent autoimmune processes. […] Mice with targeted deletion of Stat3 in T cells are resistant to experimental autoimmune encephalomyelitis, which is a multiple sclerosis (MS) model. […] STAT phosphorylation can be assessed by phospho-flow cytometric analysis, Western immunoblot and ELISA of circulating PBMCs or of biopsied tissues.

[5] = system: naïve CD4+ T cells, regulatory T cells; assay: Mixed lymphocyte study, pre-treated CIA B cells with naïve CD4+ T cells; type: cell-based, mice; details: B cells treated 33 nM for 1 hr, co-culture 72 hr
Method: as §2, §3

TNF, IL-6 and IL-1beta = assay: Serum cytokine ELISA in CIA treatment groups; type: in vivo; details: serum from 3 mice per treatment group, ELISA in triplicate
Excerpt: FIG. 9. Serum cytokine levels are similar between vehicle and cardiac glycoside treatment groups. […] The unpaired student t-test was used to assess significance.

[6] = daily i.p. from Mean Visual Score of 2, digitoxin 0.3 mg/kg, proscillaridin […], Mann-Whitney

C[C@H]1O[C@@H](O[C@H]2[C@@H](O)C[C@H](O[C@H]3[C@@H](O)C[C@H](O[C@H]4CC[C@@]5(C)[C@H](CC[C@@H]6[C@@H]5CC[C@]5(C)[C@@H](C7=CC(=O)OC7)CC[C@]65O)C4)O[C@@H]3C)O[C@@H]2C)C[C@H](O)[C@@H]1O [Digitoxin, digitoxin]
disease and inflammation (clinical score, paw thickness), dosing every three days i.p. ([1]; 0.9 mg/kg digitoxin or 0.6 mg/kg ouabain, i.p., days −3, 0, 3, 6, 9, 12 after boost): significantly less disease and inflammation
onset of collagen arthritis, dosing every three days sublingual ([1]; 0.9 mg/kg digitoxin or 0.6 mg/kg ouabain, sublingual, days −3, 0, 3, 6, 9, 12 after boost): significantly inhibited the onset of collagen arthritis; also recorded: effective in preventing
Mean Paw Thickness, treatment of established arthritis [1, 6]: statistically significant reductions
Mean Visual Score, treatment of established arthritis [1, 6]: statistically significant reductions
development of CIA (Mean Visual Arthritis Score, Mean Paw Thickness), prevention study ([1]; daily i.p. from the day prior to induction, digitoxin 0.3 mg/kg, ouabain 0.03 mg/kg, proscillaridin […]): prevented the development of CIA
average clinical arthritis scores compared to vehicle, prevention study ([1]; mouse, in vivo): significantly reduced
prevention and treatment of collagen-induced arthritis (CIA) ([1]; murine model for rheumatoid arthritis, summary statement): potently prevent and treat
BAFF-mediated stimulation of B cells through BAFFR (BAFFR): inhibited BAFF-mediated stimulation
Partition Coefficient [2]: 96.5
induction of regulatory T cells in vivo (regulatory T cells): induce regulatory T cells
oral bioavailability [3]: > 90%
B cell receptor mediated B cell proliferation [4]: did not inhibit
STAT3 phosphorylation (Y705) (phospho-STAT3 (Y705)): stimulate STAT3 phosphorylation
induction of regulatory T cells in vitro [5]: induce regulatory T cells
Serum cytokine levels (TNF, IL-6 and IL-1beta) versus vehicle (TNF, IL-6 and IL-1beta): similar

From patent US20140011755A1, “Cardiac Glycosides for Treating Autoimmune Disease” (Department of Veterans Affairs, priority 2010, published 2014)
